Laboratory results from patent US4400384A, “5-o-Cyanobenzyl-4,5,6,7-tetrahydrothieno [3,2-c] pyridine methanesulfonate and other novel salts thereof” (Sanofi, S.A., priority 1980, dated 1983).
Entries after “also recorded” stand apart in the source; their conditions may differ. Where two headings read alike, the source gives them in different places.

Legend:
[1] = test system: dogs; experiment: Toxicity by intravenous administration in dogs; type: in vivo
Method: Further tests were conducted by intravenous administration of the MS salt to the dogs. In these tests 15 dogs were divided into three groups of 2 male and 3 female dogs each. One group was used as a control; only the 5 ml of […] aqueous saline vehicle being injected intravenously. The other two groups of dogs received intravenous injections of the MS salt in the same vehicle; one group a 2.5% solution of the MS salt at a dosage of 7.5 mg/Kg and the other group receiving the same solution at a dosage of 15 mg/Kg.

[2] = test system: effects of oxotremorine or reserpine; experiment: Modification of the effects of oxotremorine or reserpine; type: in vivo; conditions: alone or together with ethyl alcohol
[3] = test system: blood-platelet aggregation; experiment: Inhibition of blood-platelet aggregation (general statement); type: in vivo; conditions: result in words
Method: The inhibitor action on blood-platelet aggregation of the salts of the present invention was determined by two different standard methods known to the art.
The first method, involving the use of ADP (adenosine diphosphate), is that of Ferrand J. C., Gaich C., Dumas, A.--EVALUATION DE L' EFFET ANTI-AGREGANT DE LA TICLOPIDINE PAR UNE TECHNIQUE SUR SANG TOTAL. COMM. SOCIETE DE BIOLOGIE DE TOULOUSE (TOULOUSE Feb. 9, 1978), RESUME IN: REV MED TOULOUSE, 1978, 14, (SUPPL. 5) 680, referred to hereinafter as the ADP method.
The second method is that described in Ferrand J. C., Lale A.--NUMERATION ET AGREGATION PLAQUETTAIRE A L AIDE DE L AUTOCOUNTER. APPLICATION A L ETUDE DE LA TICLOPIDINE. COMM. SYMPOSIUM TECHNICON INDUSTRIE (PARIS, June 15, 1978); Ferrand J. C., Lale A.--EVALUATION EX-VIVO DE L AGREGATION PLAQUETTAIRE PAR UNE TECHNIQUE AUTOMATIQUE SUR SANG TOTAL COMM. SOCIETE FRANCAISE DE BIOLOGIE CLINIQUE (PARIS Sept. 28, 1979); and J. C. Ferrand, A. Lale, D. Aubert and G. Barthelemy--APPRECIATION QUANTITATIVE DE L' ACTIVITE ANTI-AGREGANTE DE LA TICLOPIDINE PAR VOIE AUTOMATIQUE. COMM. REUNION DE L' ASOCIATION FRANCAISE DE PHARMACOLOGISTES DIJON (May 2-3, 1980), and is referred to hereafter as the collagen method. […]

[4] = Hypolipidic, hypocholesterol, hypoglycemic activity; conditions: in vivo
[5] = Anti-inflammatory activity; type: in vivo; conditions: result in words; listed as MS salt, methanesulfonate
[6] = test system: red globules; experiment: Anti-sludge activity in vivo in the rat
[7] = test system: central nervous system; experiment: Central nervous system activity per se, mice; type: in vivo
[8] = test system: blood-platelet aggregation; experiment: Clinical study, second series: inhibition of blood-platelet aggregation; type: in vivo, human; conditions: oral capsules, 700 mg per day, 7 days plus morning of 8th day, 11 patients
Method: (§1) In a second series of tests, the MS salt was again administered orally in the form of capsules containing 175 mg of the active salt. Eleven patients were treated, each patient receiving 4 capsules per day containing a total of 700 mg of MS salt divided in two portions of 350 mg morning and evening, after meals, for 7 days, and on the 8th day in the morning only. Therefore, the total amount of active ingredient (MS salt) was 5250 mg to each subject.

[9] = Acute toxicity in mice; conditions: mouse, in vivo
Method: The preferred methanesulfonate salt of the present invention was tested for acute and sub-acute toxicity and the results obtained on rats and mice by oral, intravenous and intraperitoneal administration are set forth in the tables below.

[10] = test system: human patients; experiment: Clinical study, first series: tolerance; type: in vivo; conditions: oral capsules, 350 to 1400 mg per day, 3 weeks, 12 patients
Method: The MS salt has been administered to human patients orally in the form of capsules each containing 175 mg of the active salt. Twelve patients were treated in four groups; one group receiving 2 capsules per day (350 mg); a second group receiving 4 capsules per day (700 mg); a third group receiving 6 capsules per day (1050 mg); and the fourth group receiving 8 capsules per day (1400 mg). This regimen was continued for 3 weeks.

[11] = Analgesic activity; conditions: in vivo
[12] = test system: rats; experiment: Sub-acute toxicity in rats, oral, 6 weeks; type: in vivo
Method: These tests were carried out on four groups of 30 rats, 15 males and 15 females in each group; the rats all being type SPF adults. Administration was by the oral route, carried out 5 days per week for a period of 6 consecutive weeks.

[13] = test system: dogs; experiment: Toxicity by oral administration in dogs; type: in vivo; conditions: 33 to 100 mg/Kg/day, 24 days
Method: Further toxicity investigations were carried out on the MS salt by oral administration in dogs. Two groups of 10 adult dogs were selected; one group being used as the control and the second group having the MS salt administered orally in increasing dosages as follows: […]

[14] = test system: central nervous system; experiment: Central nervous system activity per se, rats; type: in vivo
[15] = test system: patients; experiment: Clinical study, second series: tolerance; type: in vivo, human; conditions: oral capsules, 700 mg per day, 7 days plus morning of 8th day, 11 patients
Method: as §1

[16] = oral, 50, 150, 300 mg/Kg, 5 days per week, 6 weeks

## CS(=O)(=O)O.N#Cc1ccccc1CN1CCc2sccc2C1 [Methanesulfonate, 5-o-Cyanobenzyl-4,5,6,7-tetrahydrothieno [3,2-c] pyridine methanesulfonate]
[1]; conclusion from oral and intravenous tests
  toxicity and tolerance in dogs (overall): of low toxicity and well-tolerated by dogs
[1]; intravenous, 7.5 and 15 mg/Kg, 2.5% solution in 9% aqueous saline, 23 consecutive days
  death: without the death of any dog
[2]
  modification of the effects of oxotremorine: does not modify the effects of oxotremorine
  modification of the effects of reserpine: does not modify the effects of oxotremorine or reserpine
[3]
  inhibitor action against blood-platelet aggregation: excellent inhibitory action against blood-platelet aggregation
[4]
  hypocholesterol activity: no hypolipidic, hypocholesterol
  hypoglycemic activity: no hypolipidic, hypocholesterol, or hypoglycemic activity
  hypolipidic activity: no hypolipidic
[5]
  anti-inflammatory activity: free of anti-inflammatory or vasodilator activity as is the MS salt; also recorded: without anti-inflammatory activity
[6]; administered intravenously
  anti-sludge activity in vivo, intravenous: also in vivo when administered orally or intravenously in the rat
[6]; administered orally
  anti-sludge activity in vivo, oral: also in vivo when administered orally
[7]
  influence on the central nervous system per se, mice: no influence on the central nervous system
[8]
  inhibitory activity on blood-platelet aggregation in patients: very effective inhibitory activity on blood-platelet aggregation
[9]; intravenous, read-out: LD50, intravenous, mice
  LD50 at 8 h: 134 mg/kg
[9]; ip, intraperitoneal, read-out: LD50, intraperitoneal, mice
  LD50 at 8 h: 898 mg/kg
[9]; oral, read-out: LD50, oral, mice
  LD50 at 8 h: 883 mg/kg
[10]
  clinical tolerance: Clinical tolerance was excellent
  side effects or incidents: no side effects or incidents being noted
[11]
  analgesic properties: free of analgesic properties
[12]; conclusion from acute and sub-acute tests
  toxicity and tolerance (overall): low toxicity and good tolerance
[12]; end of test period or 15 days thereafter
  microscopic examination of principal organs: normal in appearance with exception of some signs of gastric intolerance
[12]; oral, 6 weeks
  histological examination of the organs: good tolerance
[12]; [16]
  behavior of the dosed animals: No significant modification of the behavior
  death attributable to administration: nor was there any death attributable to the administration of the MS salt
[13]
  deaths attributable to the salt: No deaths occurred which were attributable to the MS salt
  hematological, blood biochemical or urinary functions: No significant variations
  vomiting: some of the dogs experienced some vomiting
[14]
  influence on the central nervous system per se, rats: no influence on the central nervous system
[15]
  clinical tolerance: Clinical tolerance was excellent
